Values of other authors, collected in US20170252421A1 (priority 2014, published 2017).

CN(C)C(=N)N=C(N)N [metformin, Metformin]
patients discontinuing the therapy due to the side effects (oral metformin): up to 5% | patients experiencing gastrointestinal side effects (oral metformin): Up to 20% | patients developing vitamin B12 deficiency (patients taking metformin): 77% | reduction of morbidity and mortality rates (treating insulin resistance): about 30%
